# Tests used:
# [1] = tested on: antigen-induced swelling reaction in a mouse ear; experiment: Suppressive action against antigen-induced swelling reaction in a mouse ear; format: in vivo, BALB/c female mice
# Experimental: (§1) Seven week old BALB/c female (SPF) mice of were selected as subjects. According to a method of Tanaka, et al. (Allergy, 46, pages 42-48(1997)), egg white albumin (final concentration: 2 μg/mL) and aluminum hydroxide gel (final concentration: 10 mg/mL) were suspended in physiological saline and 0.5 mL of the suspension was administered to effect intraperitoneal sensitization on the first day of the test. On the 14th day of the test, an additional sensitization was carried out under the same conditions. Further, on the 28th day of the test, 25 μL of egg albumin (a 20 μg/mL solution in physiological saline) was intradermally administered to the right ear of a mouse to induce a swelling reaction.
# (§2) This swelling reaction reached its peak at 4 hours after the challenge by the antigen. Even after 24 to 48 hours, a significant swelling reaction was noted as compared with the control in which antigen was merely challenged (not sensitized). […] On the contrary, the swelling from 24 to 48 hours after the challenge is thought to be the so-called delayed-type swelling reaction accompanied by infiltration of eosinophils, neutrophils and lymphocytes. In addition, a flare-up reaction having a peak at 24 hours after the challenge appeared on the ear of the antigen-induced site. Like swelling, flare-up is an important symptom of inflammation. Although the mechanism of the flare-up reaction is ambiguous, it may be a flare-up reaction of a delayed type in view of the time course of its expression. As such, this model animal in which the inflammation of both immediate and delayed types are induced is appropriate as a model animal for atopic dermatitis. In the following experiment, the effectiveness of the therapeutic agent for dermatitis according to the present invention was tested using the said model animal.
# Each of a vehicle (control) and a test agent (containing the compound of the present invention or a positive control) was applied to the antigen-induced site (right auricle) of a mouse. A swelling reaction was induced in accordance with Example 2 at 2 hours before and 4 hours after the challenge. After the challenge, the thickness of the swelling induced ear was measured by a Dial Thickness Gauge (manufactured by Ozaki Seisakusho). The intensity of the reaction was expressed in terms of an increase in the auricle thickness by deducting the thickness (early value) measured before the challenge from the thickness of the swelling induced ear. The suppression rate of the test drug for ear swelling was calculated by the following formula:
# Suppression Rate (%)=100 ×[(Ear Thickness Increase of Vehicle-Only-Control)—(Ear Thickness Increase of the Test Group)]/[(Ear Thickness Increase of the Vehicle-Only-Control)—(Ear Thickness Increase of the Challenge-Only-Group)]
# [2] = tested on: antigen-induced flare-up reaction in a mouse; experiment: Suppressive action against antigen-induced flare-up reaction in a mouse; format: in vivo, BALB/c female mice; details: 0.12% ointment
# Experimental: as §1, §2
# Each of a vehicle (control) and an agent for the test (the therapeutic agent for dermatitis according to the present invention or a positive control) was applied to the antigen-induced site (right auricle) of a mouse to induce a swelling reaction in accordance with Example 2 at 2 hours before and 4 hours after the challenge. The right ear was observed by naked eye and the degree of flare-up was scored according to the following standard:
# 1: in such a degree that a flare-up was confirmed, the color is clear red or pale red and the size was small
# 2: between score 3 and score 1
# 3: color of the flare-up was clearly red and the size of the flare-up was big
# ear of a normal mouse = experiment: Influence of repeated application on the ear thickness of a normal mouse; format: in vivo
# Experimental: The therapeutic agent for dermatitis according to the present invention or the positive control (steroid preparation) was applied twice daily to the right ear of a normal mouse for a total of nine times and, 2 hours after the final application, the thickness of the ear was measured.
# [3] = Table 2, 1% ointment, 24 hr after challenge
# [4] = Table 2, 3% ointment, 24 hr after challenge
# [5] = Table 1, 0.12% ointment, 1 hr after challenge
# [6] = Table 1, 0.12% ointment, 8 hr after challenge
# [7] = Table 1, 0.12% ointment, 24 hr after challenge
# [8] = Table 1, 0.12% ointment, 48 hr after challenge
# [9] = Table 2, 0.12% ointment, 24 hr after challenge
smiles,measurement,setting,value
"Nc1ccc2c(=O)n(Cc3ccccc3Cl)c(=O)n(-c3ccccc3)c2n1 [Compound 2, 7-amino-3-(2-chlorobenzyl)-1,2,3,4-tetrahydro-1-phenylpyrido[2,3-d]pyrimidin-2,4-dione]",Ear Thickness Increase at 4 hr after Challenge,"[1]; Table 2, 1% ointment",19.5 ± 3.2 × 0.01 mm
same,Suppression Rate of ear thickness increase at 4 hr after Challenge,"[1]; Table 2, 1% ointment",(22.2%)
same,Ear Thickess Increase at 24 hr after Challenge,[1]; [3],11.8 ± 2.6 × 0.01 mm
same,Suppression Rate of ear thickness increase at 24 hr after Challenge,[1]; [3],(30.3%)
same,Ear Thickness Increase at 4 hr after Challenge,"[1]; Table 2, 3% ointment",19.3 ± 2.4 × 0.01 mm
same,Suppression Rate of ear thickness increase at 4 hr after Challenge,"[1]; Table 2, 3% ointment",(23.1%)
same,Ear Thickess Increase at 24 hr after Challenge,[1]; [4],8.0 ± 1.4 × 0.01 mm
same,Suppression Rate of ear thickness increase at 24 hr after Challenge,[1]; [4],(54.8%)
"CCCCC(=O)O[C@]1(C(=O)CO)[C@@H](C)C[C@H]2[C@@H]3CCC4=CC(=O)C=C[C@]4(C)[C@@]3(F)[C@@H](O)C[C@@]21C [Positive Control, betamethasone valerate, reference compound]",Ear Thickness Increase at 1 hr after Challenge,[1]; [5],8.3 ± 0.7 × 0.01 mm
same,Suppression Rate of ear thickness increase at 1 hr after Challenge,[1]; [5],(45.5%)
same,Ear Thickness Increase at 4 hr after Challenge,"[1]; Table 1, 0.12% ointment",16.3 ± 2.0 × 0.01 mm
same,Suppression Rate of ear thickness increase at 4 hr after Challenge,"[1]; Table 1, 0.12% ointment",(42.0%)
same,Ear Thickness Increase at 8 hr after Challenge,[1]; [6],2.0 ± 1.2 × 0.01 mm
same,Suppression Rate of ear thickness increase at 8 hr after Challenge,[1]; [6],(49.7%)
same,Ear Thickness Increase at 24 hr after Challenge,[1]; [7],5.0 ± 1.0 × 0.01 mm
same,Suppression Rate of ear thickness increase at 24 hr after Challenge,[1]; [7],(80.0%)
same,Ear Thickness Increase at 48 hr after Challenge,[1]; [8],2.0 ± 1.0 × 0.01 mm
same,Suppression Rate of ear thickness increase at 48 hr after Challenge,[1]; [8],(100.0%)
same,Ear Thickness Increase at 4 hr after Challenge,"[1]; Table 2, 0.12% ointment",11.0 ± 0.6 × 0.01 mm
same,Suppression Rate of ear thickness increase at 4 hr after Challenge,"[1]; Table 2, 0.12% ointment",(60.0%)
same,Ear Thickess Increase at 24 hr after Challenge,[1]; [9],6.3 ± 2.4 × 0.01 mm
same,Suppression Rate of ear thickness increase at 24 hr after Challenge,[1]; [9],(65.8%)
same,Suppression Rate of flare-up score at 4 hr after Challenge,[2]; 4 hr after challenge,(25.0%)
same,Flare-up Score at 4 hr after Challenge,"[2]; 4 hr after challenge, score 0-3",0.6 ± 0
same,Suppression Rate of flare-up score at 24 hr after Challenge,[2]; 24 hr after challenge,(40.0%)
same,Flare-up Score at 24 hr after Challenge,"[2]; 24 hr after challenge, score 0-3",1.5 ± 0.2
same,Ear Thickness,"ear of a normal mouse; 0.12% ointment applied twice daily, nine times in total, 2 hours after final application",18.3 ± 0.5 × 0.01 mm
same,influence of repeated application on auricle thickness,"ear of a normal mouse; positive control ointment, repeated application",significantly reduced the auricle thickness
